Laboratory results taken from patent US11970448B2, “Monomers capable of dimerizing in an aqueous solution, and methods of using same” (CORNELL UNIVERSITY, priority 2011, dated 2024).
pIC50: −log10 of the molar value. Structures can show the parent of a compound that is named as a salt.

These compounds were tested against T1, recominbant human tryptase, beta, from lung (Homo sapiens, UniProt P20231) (assay: Inhibition of tryptase activity by monomers and multimers (Boc-Gln-Ala-Arg-AMC fluorescence)). Conditions: monomers against tryptase, Table 5; read-out: Monomer IC50 range.
T1 construct: purchased Promega or Enzo Life Sciences G5631 or BML-SE418
T1 sequence (P20231 31-275): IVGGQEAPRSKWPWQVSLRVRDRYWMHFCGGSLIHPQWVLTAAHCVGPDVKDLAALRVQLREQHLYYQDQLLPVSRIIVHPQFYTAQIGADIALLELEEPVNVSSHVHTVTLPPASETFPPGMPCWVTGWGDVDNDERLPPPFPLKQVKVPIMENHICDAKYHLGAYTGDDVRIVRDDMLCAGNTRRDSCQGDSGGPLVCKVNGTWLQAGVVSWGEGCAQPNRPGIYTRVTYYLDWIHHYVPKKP
Type: biochemical
Procedure: Stock solutions of recominbant human tryptase, beta, from lung (Promega: catalog number G5631, or Enzo Life Sciences: catalog number BML-SE418) were made at 30 μM, in solution with 5 μM heparin sulfate and 1 M NaCl. Monomer tryptase inhibitor stock solutions were made at 50 mM in DMSO. Test substance plates were made at 1.2× the final concentration in assay buffer (50 mM HEPES, 150 mM NaCl, 100 μM EDTA, pH 7.4, 0.02% Tween-20). A final concentration of 1 nM tryptase was used. When required, test substances were diluted in water immediately before use in 10-fold serial dilutions. After the indicated incubation time, the test subtance-tryptase solution at 1.2× concentration, was diluted into assay buffer containing a final concentration of 200 μM N-tert-butoxycarbonyl-Gln-Ala-Arg-AMC HBr [AMC=7-amino-4-methylcoumarin] (Boc-Gln-Ala-Arg-AMC; Enzo Life Sciences: catalog number BML-P237) to a final volume of 50 μl in black opaque round bottom 96 well plates (Corning, catalog number 3792). The release of fluorescent AMC was immediately measured every 30 seconds over 15-30 minutes at an excitation wavelength of 367 nm, monitoring emission at 468 nm on a Spectramax M5 (Molecular Devices) microplate reader. The Softmax Pro (Molecular Devices) and Graphpad prism software were used to determine Vmax, and concentration-response curve IC50s, respectively.
Compound `NCc1ccc(C(=O)NCc2ccc(OCC(=O)N3C[C@H](O)[C@@H](O)C3)cc2)cc1` [CF1, 4-(aminomethyl)-N-(4-(2-((3S,4S)-3,4-dihydroxypyrrolidin-1-yl)-2-oxoethoxy)benzyl)benzamide hydrochloride] has a pIC50 of 4.19 to 5.00. Work on `NCc1cccc(C2CCN(C(=O)c3ccc(Cl)c(Cl)c3)CC2)c1` [CF5, (4-(3-(aminomethyl)phenyl)piperidin-1-yl)(3,4-dichlorophenyl)methanone] yielded a pIC50 of 6.00 to 10.00. For `NCc1ccc(C(=O)NCc2ccc(OCC(=O)N3C[C@@H](O)[C@H](O)C3)cc2)cc1` [CF6, 4-(aminomethyl)-N-(4-(2-((3R,4R)-3,4-dihydroxypyrrolidin-1-yl)-2-oxoethoxy)benzyl)benzamide hydrochloride], the pIC50 was 4.19 to 5.00. For `NCc1ccc(C(=O)NCc2ccc(OCC(=O)N3CC(=O)[C@H](O)C3)cc2)cc1` [CF7, (R)-4-(aminomethyl)-N-(4-(2-(3-hydroxy-4-oxopyrrolidin-1-yl)-2-oxoethoxy)benzyl)benzamide hydrochloride], the pIC50 was 5.00 to 6.00. `NCc1ccc(C(=O)NCc2ccc(OCCC(=O)N3CC(=O)[C@@H](O)C3)cc2)cc1` [CF10, (S)-4-(aminomethyl)-N-(4-(3-(3-hydroxy-4-oxopyrrolidin-1-yl)-3-oxopropoxy)benzyl)benzamide hydrochloride] gave a pIC50 of 4.19 to 5.00. `NCc1ccc(C(=O)NCc2ccc(OCCC(=O)N3CC(=O)[C@H](O)C3)cc2)cc1` [CF12, (R)-4-(aminomethyl)-N-(4-(3-(3-hydroxy-4-oxopyrrolidin-1-yl)-3-oxopropoxy)benzyl)benzamide hydrochloride] was tested, and the pIC50 was 5.00 to 6.00. Compound `NCc1ccc(CNC(=O)N2CCN(C(=O)CNC(=O)C(O)CO)CC2)cc1` (centres unmarked) [CF13, N-(4-(aminomethyl)benzyl)-4-(2-(2,3-dihydroxypropanamido)acetyl)piperazine-1-carboxamide hydrochloride] has a pIC50 of 5.00 to 6.00. Work on `NCc1ccc2c(c1)C1(CCN(C(=O)c3ccc(OCC(O)CO)cc3)CC1)CO2` (centres unmarked) [CF15, (5-(aminomethyl)-2H-spiro[benzofuran-3,4′-piperidine]-1′-yl)(4-(2,3-dihydroxypropoxy)phenyl)methanone hydrochloride] yielded a pIC50 of 5.00 to 6.00. With `NCc1cccc(C2CCN(C(=O)c3cccc(NC(=O)NCC(O)C(F)(F)F)c3)CC2)c1` (centres unmarked) [CF17, 1-(3-(4-(3-(aminomethyl)phenyl)piperidine-1-carbonyl)phenyl)-3-(3,3,3-trifluoro-2-hydroxypropyl)urea hydrochloride] the pIC50 was 6.00 to 10.00. With `NCc1ccc(CNC(=O)N2CCN(C(=O)CNC(=O)C(=O)CO)CC2)cc1` [CF20, N-(4-(aminomethyl)benzyl)-4-(2-(3-hydroxy-2-oxopropanamido)acetyl)piperazine-1-carboxamide] the pIC50 was 6.00 to 10.00. In the case of `NCc1ccc2c(c1)C1(CCN(C(=O)c3ccc(O)c(O)c3)CC1)CO2` [T2SPIRO, (5-(aminomethyl)-2H-spiro[benzofuran-3,4′-piperidine]-1′-yl)(3,4-dihydroxyphenyl)methanone], the pIC50 was 6.00 to 10.00. Compound `NCc1ccc(F)c(C2CCN(C(=O)c3cccc4ccc(B(O)O)cc34)CC2)c1` [T11F, 8-(4-(5-(aminomethyl)-2-fluorophenyl)piperidine-1-carbonyl)naphthalen-2-ylboronic acid] has a pIC50 of 5.00 to 6.00. With `NCc1cccc(C2CCN(C(=O)c3cccc(/C=C/B(O)O)c3)CC2)c1` [T14, (E)-3-(4-(3-(aminomethyl)phenyl)piperidine-1-carbonyl)styrylboronic acid] the pIC50 was 6.00 to 10.00. In the case of `NCc1cccc(C2CCN(C(=O)c3cccc(NC(=O)C(O)C4(O)CCC4)c3)CC2)c1` (centres unmarked) [T21 (Diol), N-(3-(4-(3-(aminomethyl)phenyl)piperidine-1-carbonyl)phenyl)-2-hydroxy-2-(1-hydroxycyclobutyl)acetamide], the pIC50 was 6.00 to 10.00. With `NCc1cccc(C2CCN(C(=O)c3cccc(NC(=O)C(=O)C4(O)CCC4)c3)CC2)c1` [T21, N-(3-(4-(3-(aminomethyl)phenyl)piperidine-1-carbonyl)phenyl)-2-(1-hydroxycyclobutyl)-2-oxoacetamide] the pIC50 was 6.00 to 10.00. `NCc1cccc(C2CCN(C(=O)c3cccc(OCC(=O)C4(O)CCC4)c3)CC2)c1` [T22, 2-(3-(4-(3-(aminomethyl)phenyl)piperidine-1-carbonyl)phenoxy)-1-(1-hydroxycyclobutyl)ethanone] showed a pIC50 of 6.00 to 10.00.

Same assay, conditions: monomers against tryptase, entry marked (1:10); read-out: IC50 range group of additional monomers marked (1:10)
`C[C@@]1(O)CN(c2cccc(C(=O)N3CCC(c4cccc(CN)c4)CC3)c2)C(=O)[C@@H]1O` [CMI9317, 1-{^3-[^4-(3-aminomethyl-phenyl)-piperidine-1-carbonyl]-phenyl}-3,4-dihydroxy-4-methyl-pyrrolidin-2-one hydrochloride] showed a pIC50 of 6.00 to 10.00. In the case of `C[C@]1(O)CN(c2cccc(C(=O)N3CCC(c4cccc(CN)c4)CC3)c2)C(=O)[C@H]1O` [CMI9321, 1-{3-[4-(3-aminomethyl-phenyl)-piperidine-1-carbonyl]-phenyl}-3,4-dihydroxy-4-methyl-pyrrolidin-2-one hydrochloride], the pIC50 was 6.00 to 10.00.

Same assay, conditions: monomers against tryptase; read-out: IC50 range group of additional monomers (boronic acid, benzooxaborole, ligands)
`NCc1cccc(C2CCN(C(=O)c3cccc(NC(=O)C4CC5CC4C(O)C5O)c3)CC2)c1` (racemic) [T139RACEENDO, (±) endo-N-(3-(4-(3-(aminomethyl)phenyl)piperidine-1-carbonyl)phenyl)-5,6-syn-dihydroxybicyclo[2.2.1]heptane-2-carboxamide] gave a pIC50 of 5.00 to 6.00. With `NCc1cccc(C2CCN(C(=O)C3CC4CC3C(O)C4O)CC2)c1` (racemic) [T140RACEENDO, (±) endo (4-(3-(aminomethyl)phenyl)piperidin-1-yl)-(5,6-syn-dihydroxybicyclo[2.2.1]heptan-2-yl)methanone] the pIC50 was 5.00 to 6.00. Work on `NCc1cccc(C2CCN(C(=O)c3cccc(NC(=O)C4CC5CCC4C(O)C5O)c3)CC2)c1` (racemic) [T141ENDOANTI, (±) endo-N-(3-(4-(3-(aminomethyl)phenyl)piperidine-1-carbonyl)phenyl)-5,6-anti-dihydroxybicyclo[2.2.2]octane-2-carboxemide.] yielded a pIC50 of 6.00 to 10.00. Compound `NCc1cccc(C2CCN(C(=O)c3cccc(NC(=O)C4CC5CCC4C(O)C5O)c3)CC2)c1` (racemic) [T141EXOANTI, (±) exo-N-(3-(4-(3-(aminomethyl)phenyl)piperidine-1-carbonyl)phenyl)-5,6-anti-dihydroxybicyclo[2.2.2]octane-2-carboxamide.] has a pIC50 of 5.00 to 6.00. In the case of `NCc1cccc(C2CCN(C(=O)c3cccc(NC(=O)C4CC5CCC4C(O)C5O)c3)CC2)c1` (racemic) [T141EXOSYN, (±) exo-N-(3-(4-(3-(aminomethyl)phenyl)piperidine-1-carbonyl)phenyl)-5,6-syn-dihydroxybicyclo[2.2.2]octane-2-carboxamide.], the pIC50 was 5.00 to 6.00. Compound `NCc1cccc(C2CCN(C(=O)C3CC4CCC3C(O)C4O)CC2)c1` (racemic) [T142ENDOANTI, (±) endo (4-(3-(aminomethyl)phenyl)piperidin-1-yl)(-5,6-anti-dihydroxybicyclo[2.2.2]octan-2-yl)methanone] has a pIC50 of 6.00 to 10.00. `NCc1cccc(C2CCN(C(=O)C3CC4CCC3C(O)C4O)CC2)c1` (racemic) [T142ENDOSYN, (±) endo (4-(3 (aminomethyl)phenyl)piperidin-1-yl)(-5,6-syn-dihydroxybicyclo[2.2.2]octan-2-yl)methanone] showed a pIC50 of 4.19 to 5.00. `NCc1cccc(C2CCN(C(=O)C3CC4CCC3C(O)C4O)CC2)c1` (racemic) [T142EXOANTI, (±) endo (4-(3 (aminomethyl)phenyl)piperidin-1-yl)(-5,6-anti-dihydroxybicyclo[2.2.2]octan-2-yl)methanone] showed a pIC50 of 4.19 to 5.00. Compound `NCc1ccc2c(c1)C1(CCN(C(=O)c3ccc(O)c(O)c3)CC1)CO2` [T2SPIRO, (5-(aminomethyl)-2H-spiro[benzofuran-3,4′-piperidine]-1′-yl)(3,4-dihydroxyphenyl)methanone] has a pIC50 of 6.00 to 10.00. `NCc1ccc(F)c(C2CCN(C(=O)c3cccc4ccc(B(O)O)cc34)CC2)c1` [T11F, 8-(4-(5-(aminomethyl)-2-fluorophenyl)piperidine-1-carbonyl)naphthalen-2-ylboronic acid] showed a pIC50 of 5.00 to 6.00. For `NCc1cccc(C2CCN(C(=O)c3cccc(NC(=O)C(O)C4(O)CCC4)c3)CC2)c1` (centres unmarked) [T21 (Diol), N-(3-(4-(3-(aminomethyl)phenyl)piperidine-1-carbonyl)phenyl)-2-hydroxy-2-(1-hydroxycyclobutyl)acetamide], the pIC50 was 6.00 to 10.00.
